Here are results for one molecule from paper PMC11148772, “Inhibition of protein translational machinery in triple-negative breast cancer as a promising therapeutic strategy” (Cell Reports Medicine, 2024).

The target in the experiment is YB-1 (Homo sapiens, UniProt P67809). The experiment is described as follows: Cellular thermal shift assay (CETSA). Set-up: endogenous in cells; host or cells: MDA-MB-231. It counts as binding. Conditions: MDA-MB-231 cells, 1.5 h. The procedure:
MDA-MB-231 cells treated with vehicle control (DMSO) or SU056 were analyzed by CETSA.[53] Cells were grown to 70–80% confluency and then treated with either DMSO (vehicle control) or SU056 (1 μM) for 1.5 h. Cells were then washed twice with PBS and divided into 10 PCR tubes (1 x 10^6 cells/tube in 100 μL PBS). The tubes incubated at different temperatures (37, 41, 44, 47, 50, 53, 56, 59, 63, 67°C) for 3 min in a thermal cycler, followed by 2 min at room temperature. The tubes were snap-frozen in liquid nitrogen, the cells were lysed using a freeze/thaw cycle, and the soluble and insoluble fractions were separated by centrifugation at 14,000 RPM for 30 min at 4°C. […] All samples were analyzed by LC-MS/MS in triplicate.
A Dionex Ultimate Rapid Separation Liquid Chromatography system (Thermo Fisher Scientific) was used to load 3 μL of the combined TMT-labeled peptides onto a PepMap C18 trap column (Thermo Fisher Scientific) with a flow rate set at 5 μL/min for 10 min. […] The flow rate throughout the gradient was set to 0.3 μL/min and each sample was analyzed in triplicates. Eluted peptides were analyzed using an Orbitrap Eclipse Tribrid mass spectrometer (Thermo Fisher Scientific). […] The most abundant precursor ions were subject to collision induced dissociation (CID) with a collisional energy set to […] and detected in the ion trap using Turbo scan rate. […]

For `O=C1OCC2=C1C(c1cccc(F)c1)c1cc3c(cc1N2CCO)OCO3` (centres unmarked) [SU056, 9-(3-fluorophenyl)-5-(2-hydroxyethyl)-6,9-dihydro-[1,3]dioxolo[4,5-g]furo[3,4-b]quinolin-8(5H)-one], the ΔTm – broadly, the change in melting temperature against a reference sample – at 1 µM is 13.8 °C. Also, the “stability of translation-associated proteins (eIFs, RPL, RPS)” value (1 μM) was “increased the overall stability”.
